Laboratory results reported in patent US8163909B2, “Substituted hydroxyethyl amine compounds as beta-secretase modulators and methods of use” (Amgen Inc., priority 2007, dated 2012).
pIC50: −log10 of the molar value. Where two headings read alike, the source gives them in different places.

Legend:
[1] = test system: Aβ40 in conditioned medium of cells stably expressing Amyloid Precursor Protein (APP); assay: In vitro BACE cell-based assay (Aβ40 in conditioned medium, sandwich ELISA); details: Homo sapiens; for IC50: IC50's in uM;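 for all read-outs here: compounds added as a dilution series, secreted peptide quantified by europium time-resolved fluorescence readout, potency fitted from percent of control versus compound concentration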
CYP3A4 (CYP3A) = CYP3A4 (CYP3A) (Homo sapiens, UniProt P08684); assay: in vitro; details: microsomes, pH 7.4;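 note: inhibition of CYP3A-mediated 1-hydroxymidazolam formation after 10 min incubation with NADPH, quantified by HPLC MS relative to metabolite produced without test compound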
[2] = Microsomal stability assay, human liver microsomes;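 note: pooled human liver microsomes at 0.25 mg/mL with 1 µM compound and NADPH at 37 °C, pH 7.4, for 30 min, unchanged parent quantified by LC-MS/MS against the 0 min sample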
[3] = target: Beta Secretase enzyme (BACE) (Homo sapiens, UniProt P56817); assay: In vitro enzymatic BACE FRET (fluorescence resonance energy transfer) assay; format: biochemical; details: for IC50: IC50's in uM;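 for all read-outs here: fluorescence read after 1 h with 50 nM quenched peptide substrate spanning the BACE cleavage site, in pH 4.2 acetate buffer containing 10% DMSO and nonionic detergent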
CYP2D6 = CYP2D6 (Homo sapiens, UniProt P10635); assay: CYP2D6 inhibition assay (bufuralol, pooled human liver microsomes); details: for IC50: 2D6 IC50 (uM)
[4] = Microsomal stability assay, rat liver microsomes;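 note: rat liver microsomes (0.25 mg/mL) with about 1 µM compound plus 1 mM NADPH, pH 7.4, 37 °C for 30 min, parent left measured by LC-MS/MS against 0 min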
[5] = HEK293, HEK cells, read-out: HEK cell assay (IC50)
[6] = read-out: BACE1 FRET assay (IC50)
[7] = HEK293, HEK cells, read-out: HEK cell assay
[8] = BACE enzyme assay, read-out: BACE1 FRET assay
[9] = HEK293, HEK cell-based assay IC50, read-out: HEK cell assay
[10] = BACE enzyme assay IC50, read-out: BACE1 FRET assay
[11] = HEK293, Table 2, HEK cells, read-out: HEK cell assay
[12] = Table 2, read-out: BACE1 FRET assay
[13] = 2D6 IC50, CYP enzyme inhibition
[14] = HEK293, HEK cell-based assay, read-out: HEK cell assay
[15] = HEK293, cell-based assay, HEK cells, read-out: HEK cell assay

Beta Secretase enzyme (BACE), sequence (P56817 46-501): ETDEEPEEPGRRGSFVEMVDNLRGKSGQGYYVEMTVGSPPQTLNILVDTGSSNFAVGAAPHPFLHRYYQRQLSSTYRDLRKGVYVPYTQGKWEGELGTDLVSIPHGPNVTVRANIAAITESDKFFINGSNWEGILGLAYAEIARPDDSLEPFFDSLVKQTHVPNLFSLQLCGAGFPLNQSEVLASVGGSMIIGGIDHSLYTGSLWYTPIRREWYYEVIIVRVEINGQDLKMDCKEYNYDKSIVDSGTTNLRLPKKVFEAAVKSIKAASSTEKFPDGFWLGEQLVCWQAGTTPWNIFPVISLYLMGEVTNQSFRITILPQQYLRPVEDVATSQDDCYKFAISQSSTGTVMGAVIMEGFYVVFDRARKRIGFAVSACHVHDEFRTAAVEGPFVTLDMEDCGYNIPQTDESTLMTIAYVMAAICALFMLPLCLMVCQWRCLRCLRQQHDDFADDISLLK
CYP2D6, sequence (P10635 whole entry): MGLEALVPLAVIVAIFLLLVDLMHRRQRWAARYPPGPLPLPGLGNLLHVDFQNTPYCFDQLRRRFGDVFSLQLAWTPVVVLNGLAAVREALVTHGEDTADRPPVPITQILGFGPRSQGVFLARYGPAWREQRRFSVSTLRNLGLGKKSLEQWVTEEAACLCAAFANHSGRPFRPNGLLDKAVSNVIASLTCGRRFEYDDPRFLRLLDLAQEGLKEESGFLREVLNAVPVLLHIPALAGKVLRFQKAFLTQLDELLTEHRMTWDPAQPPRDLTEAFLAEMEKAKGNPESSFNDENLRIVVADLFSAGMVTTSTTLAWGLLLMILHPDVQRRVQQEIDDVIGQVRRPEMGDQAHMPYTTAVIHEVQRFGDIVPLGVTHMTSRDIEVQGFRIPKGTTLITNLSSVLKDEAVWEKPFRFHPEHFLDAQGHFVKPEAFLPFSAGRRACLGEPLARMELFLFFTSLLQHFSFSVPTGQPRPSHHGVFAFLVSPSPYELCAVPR
CYP3A4 (CYP3A), sequence (P08684 2-503): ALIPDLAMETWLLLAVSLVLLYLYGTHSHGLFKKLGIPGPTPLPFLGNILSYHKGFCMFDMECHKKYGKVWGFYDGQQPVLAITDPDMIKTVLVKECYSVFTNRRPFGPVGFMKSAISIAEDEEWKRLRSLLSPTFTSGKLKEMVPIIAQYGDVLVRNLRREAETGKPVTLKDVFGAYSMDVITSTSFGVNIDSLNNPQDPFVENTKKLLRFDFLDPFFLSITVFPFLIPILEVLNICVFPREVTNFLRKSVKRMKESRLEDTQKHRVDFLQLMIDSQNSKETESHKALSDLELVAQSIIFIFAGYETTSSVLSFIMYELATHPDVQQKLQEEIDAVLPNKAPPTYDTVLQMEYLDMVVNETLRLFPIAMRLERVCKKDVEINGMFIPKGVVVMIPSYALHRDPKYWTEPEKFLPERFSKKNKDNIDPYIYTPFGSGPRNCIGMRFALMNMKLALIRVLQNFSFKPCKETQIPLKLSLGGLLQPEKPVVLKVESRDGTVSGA

SMILES | pIC50 (CYP3A4 (CYP3A)) | HLM ([2]; human liver microsomal data) | IC50 (CYP2D6; CYP enzyme inhibition) | RLM ([4]; rat liver microsomal data) | pIC50 (CYP2D6; [13]) | other results
CC(=O)N[C@@H](Cc1cc(F)cc(-c2ccncc2)c1)[C@H](O)CN[C@H]1CC2(CCC2)Oc2ccc(CC(C)(C)C)cc21 [Example 433, N-((2S,3R)-4-((S)-2,2-spirocyclobutyl-6-neopentyl-3,4-dihydro-2H-chromen-4-ylamino)-1-(3-fluoro-5-(pyridin-4-yl)phenyl)-3-hydroxybutan-2-yl)acetamide] | 5.96 | – | – | – | – | pIC50 [1, 5]: 7.42; HLM ([2]; human liver microsomes): 492 µL/min/mg; pIC50 [3, 6]: 7.68; pIC50 (CYP2D6; 2D6 IC50, CYP2D6 inhibition): 6.70; RLM ([4]; rat liver microsomes): 590 µL/min/mg
CC(C)Cc1cnc2c(c1)[C@@H](NC[C@@H](O)[C@H](Cc1ccc3c(c1)OCO3)NC(=O)[C@H]1CCCO1)CC1(CCC1)O2 [compound 551] | 7.00 | 33 µL/min/mg | 5.7 µM | 112 µL/min/mg | – | pIC50 [1, 7]: 6.44; pIC50 [3, 8]: 7.36
CC(C)(C)Cc1cnc2c(c1)[C@@H](NC[C@@H](O)[C@H](Cc1ccc3c(c1)OCO3)NC(=O)C1CCO1)CC1(CCC1)O2 (stereo partly drawn) [compound 503, N-((1S,2R)-1-(1,3-benzodioxol-5-ylmethyl)-3-(((4′S)-6′-(2,2-dimethylpropyl)-3′,4′-dihydrospiro[cyclobutane-1,2′-pyrano[2,3-b]pyridin]-4′-yl)amino)-2-hydroxypropyl)-2-oxetanecarboxamide] | 6.70 | 23 µL/min/mg | 3.3 µM | 130 µL/min/mg | – | pIC50 [1, 7]: 7.77; pIC50 [3, 8]: 7.68
COCC(=O)N[C@@H](Cc1cc(F)cc(F)c1)[C@H](O)CN[C@H]1CC2(CCC2)Oc2c1cc(CC(C)C)nc2-c1nccn1C [compound 714] | ≥ 7.52 | – | – | – | – | pIC50 [1, 9]: 7.77; HLM ([2]; human liver microsomes): 20 µL/min/mg; pIC50 [3, 10]: 7.80; IC50 (CYP2D6; CYP2D6 inhibition): 2.2 µM; RLM ([4]; rat liver microsomes): 43 µL/min/mg
COCC(=O)N[C@@H](Cc1ccccc1)[C@H](O)CN[C@H]1CC2(CCC2)Oc2ccc(C[C@H](C)F)cc21 [compound 611] | 4.74 | – | – | – | – | pIC50 [1, 5]: 6.94; HLM ([2]; human liver microsomes): 644 µL/min/mg; pIC50 [3, 6]: 6.99; pIC50 (CYP2D6; 2D6 IC50, CYP2D6 inhibition): 5.92; RLM ([4]; rat liver microsomes): 775 µL/min/mg
COCC(=O)N[C@@H](Cc1ccnc(OC)c1)[C@H](O)CN[C@H]1CC2(CCC2)Oc2ncc(CC(C)(C)C)cc21 [compound 474] | 5.70 | 172 µL/min/mg | – | 174 µL/min/mg | 5.19 | pIC50 [1, 11]: 7.66; pIC50 [3, 12]: 7.89
COCC(=O)N[C@@H](Cc1cccc(-c2ncco2)c1)[C@H](O)CN[C@H]1CC2(CCC2)Oc2ncc(CC(C)C)cc21 [compound 804, N-((1S,2R)-2-hydroxy-3-(((4′S)-6′-(2-methylpropyl)-3′,4′-dihydrospiro[cyclobutane-1,2′-pyrano[2,3-b]pyridin]-4′-yl)amino)-1-(3-(1,3-oxazol-2-yl)benzyl)propyl)-2-methoxyacetamide] | 6.70 | 61 µL/min/mg | 2.5 µM | 43 µL/min/mg | – | IC50 [1, 14]: 0.03 µM; IC50 [3, 8]: 0.009 µM
COCC(=O)N[C@@H](Cc1cc(F)cc(F)c1)[C@H](O)CN[C@H]1CC2(CCC2)Oc2c1cc(CC(C)(C)C)nc2Nc1ccccc1 [compound 599] | 5.19 | – | – | – | – | pIC50 [1, 5]: 6.40; HLM ([2]; human liver microsomes): 120 µL/min/mg; pIC50 [3, 6]: 7.74; pIC50 (CYP2D6; 2D6 IC50, CYP2D6 inhibition): ≤ 4.57; RLM ([4]; rat liver microsomes): 125 µL/min/mg
CC(C)(C)Cc1cnc2c(c1)[C@@H](NC[C@@H](O)[C@H](Cc1cc(F)cc(-c3nccs3)c1)NC(=O)[C@H]1CCCO1)CC1(CCC1)O2 [compound 877] | 6.70 | 46 µL/min/mg | – | 64 µL/min/mg | 6.15 | IC50 [1, 15]: 0.012 µM; IC50 [3, 8]: 0.005 µM
COCC(=O)N[C@@H](Cc1ccc2c(c1)OCO2)[C@H](O)CN[C@H]1CC2(CCC2)Oc2c(-c3ccccn3)cc(CC(C)C)cc21 [compound 767] | 7.00 | 157 µL/min/mg | 3.6 µM | 150 µL/min/mg | – | IC50 [1, 14]: 0.251 µM; IC50 [3, 8]: 0.198 µM
COCC(=O)N[C@@H](Cc1cc(F)cc(F)c1)[C@H](O)CN[C@H]1CC2(CCC2)Oc2c1cc(CC(C)(C)C)nc2-c1cnc[nH]1 [compound 508] | 7.00 | 17 µL/min/mg | 1.2 µM | 43 µL/min/mg | – | pIC50 [1, 7]: 8.30; pIC50 [3, 8]: 7.62
C#Cc1ccc(C[C@H](NC(=O)[C@@H](C)OC)[C@H](O)CN[C@H]2CC3(CCC3)Oc3ncc(CC(C)(C)C)cc32)cc1 [compound 884] | 7.00 | – | – | 55 µL/min/mg | 5.42 | IC50 [1, 15]: 0.097 µM; IC50 [3, 8]: 0.251 µM
CC(C)(C)Cc1cnc2c(c1)[C@@H](NC[C@@H](O)[C@H](Cc1cccc(C#N)c1)NC(=O)c1ncccc1F)CC1(CC(F)(F)C1)O2 [compound 473] | 6.22 | – | – | 775 µL/min/mg | 5.62 | pIC50 [1, 11]: 7.20; pIC50 [3, 12]: 8.05
CC(=O)N[C@@H](Cc1cc(F)cc(F)c1)[C@H](O)CN[C@H]1CC2(CCC2)Oc2c1cc(CC(C)(C)C)nc2Nc1ccccc1 [compound 598] | 5.16 | – | – | – | – | pIC50 [1, 5]: 6.59; pIC50 [3, 6]: 7.64; pIC50 (CYP2D6; 2D6 IC50, CYP2D6 inhibition): ≤ 4.57; RLM ([4]; rat liver microsomes): 102 µL/min/mg
COCC(=O)N[C@@H](Cc1ccc2c(c1)OCO2)[C@@H](CN[C@H]1CC2(CCC2)Oc2ncc([C@H](F)C(C)(C)C)cc21)OC [compound 447] | 4.85 | – | – | – | 4.85 | pIC50 [1, 11]: 5.40; pIC50 [3, 12]: 5.58
COCC(=O)N[C@@H](Cc1ccc(F)cc1)[C@H](O)CN[C@H]1CC2(CCNC2)Oc2cnc(CC(C)(C)C)cc21 (stereo partly shown) [compound 696] | 5.54 | – | – | – | – | pIC50 [1, 9]: 6.11; HLM ([2]; human liver microsomes): 32 µL/min/mg; IC50 (CYP2D6; CYP2D6 inhibition): ≥ 27 µM; RLM ([4]; rat liver microsomes): 44 µL/min/mg
CC1(C)C[C@H]1c1cnc2c(c1)[C@@H](NC[C@@H](O)[C@H](Cc1cccc(-c3nccs3)c1)NC(=O)[C@H]1CCCO1)CC1(CCC1)O2 [compound 906] | 7.00 | 94 µL/min/mg | – | 63 µL/min/mg | 6.40 | –
COCC(=O)N[C@@H](Cc1cccc(F)c1)[C@H](O)CN[C@H]1CC2(CCC2)Oc2c(-c3ccncc3)cc(CC(C)(C)Cl)cc21 [compound 536] | ≤ 4.57 | – | ≥ 27 µM | – | – | pIC50 [1, 7]: 7.96; pIC50 [3, 8]: 7.72
COCC(=O)N[C@@H](Cc1ccc(F)cc1)[C@H](O)CN[C@@H]1CC2(CCC2)Oc2c1cc(CC(C)(C)C)nc2-n1ccnc1 [compound 449] | 7.00 | – | – | 163 µL/min/mg | 6.10 | pIC50 [1, 11]: 5.53; pIC50 [3, 12]: 5.54
CCCc1cnc2c(c1)[C@@H](NC[C@H](O)[C@@H](Cc1cc(F)cc(-c3nccs3)c1)NC(=O)[C@@H](C)OC)CC1(CCC1)O2 [compound 815] | 6.70 | 204 µL/min/mg | 0.6 µM | 276 µL/min/mg | – | –
CC(C)Cc1cnc2c(c1)[C@@H](NC[C@H](O)[C@@H](Cc1cccc(-c3nccs3)c1)NC(=O)[C@@H]1CCCO1)CC1(CCC1)O2 [compound 796] | 6.70 | 126 µL/min/mg | 0.6 µM | 58 µL/min/mg | – | IC50 [1, 14]: 0.663 µM
COC(OC)C(=O)N[C@@H](Cc1ccc(F)cc1)[C@H](O)CN[C@H]1CC2(CCC2)Oc2ncc(CC(C)(C)C)cc21 [compound 591] | 6.22 | – | – | – | – | pIC50 [1, 5]: 7.74; pIC50 [3, 6]: 8.00; pIC50 (CYP2D6; 2D6 IC50, CYP2D6 inhibition): 4.99; RLM ([4]; rat liver microsomes): 375 µL/min/mg
CO[C@H](C)C(=O)N[C@@H](Cc1cccc(-c2nccs2)c1)[C@H](O)CN[C@H]1CC2(CCC2)Oc2ncc([C@@H]3CC3(C)C)cc21 [compound 905] | 6.70 | 60 µL/min/mg | – | 71 µL/min/mg | 6.05 | –
CCCc1cnc2c(c1)[C@@H](NC[C@H](O)[C@@H](Cc1cc(F)cc(-c3nccs3)c1)NC(=O)COC)CC1(CCC1)O2 [compound 833] | 6.52 | 219 µL/min/mg | 0.9 µM | 189 µL/min/mg | – | IC50 [1, 14]: 2.28 µM
CO[C@H](C)C(=O)N[C@H](Cc1cc(F)cc(-c2nccs2)c1)[C@@H](O)CN[C@H]1CC2(CCC2)Oc2ncc(Br)cc21 [compound 821] | 6.52 | 162 µL/min/mg | 0.5 µM | 243 µL/min/mg | – | IC50 [1, 14]: 0.558 µM
COCC(=O)N[C@@H](Cc1ccc(F)cc1)[C@H](O)CN[C@H]1CC2(CCC2)Oc2c1cc(CC(C)(C)C)nc2-n1ccnc1 [compound 448] | 7.00 | – | – | 79 µL/min/mg | 5.74 | pIC50 [1, 11]: 6.82; pIC50 [3, 12]: 6.97
CC1(C)C[C@H]1c1cnc2c(c1)[C@@H](NC[C@@H](O)[C@H](Cc1cccc(-c3nccs3)c1)NC(=O)[C@@H]1CCCO1)CC1(CCC1)O2 [compound 907] | 7.00 | 77 µL/min/mg | – | 78 µL/min/mg | 6.30 | –
COCC(=O)N[C@@H](Cc1cc(F)cc(F)c1)[C@H](O)CN[C@H]1CC2(CCC2)Oc2c1cc(CC(C)C)nc2-c1ccncc1 [compound 682] | – | – | – | – | – | pIC50 [1, 9]: 7.96; HLM ([2]; human liver microsomes): 34 µL/min/mg; pIC50 [3, 10]: 8.05; IC50 (CYP2D6; CYP2D6 inhibition): 1.1 µM; RLM ([4]; rat liver microsomes): 113 µL/min/mg
